Assay results as given in the supplement of paper PMC10307832.

Compound: Cn1cncc1[C@@](N)(c1ccc(Cl)cc1)c1ccc2c(c1)c(-c1cccc(Cl)c1)cc(=O)n2C [Tipifarnib]
Experiment: relative viability (nuclei count vs DMSO), 5 days (fraction); higher = more cells survive
In short: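 Following overnight incubation at 37 °C, lung cancer cell lines in 1536-well plates were pinned with five library-drug doses (not always all listed) in √10 steps on vehicle-anchored plates. The cells then spent 5 days without medium change before a combined fix, permeabilisation and Hoechst stain, 4× imaging and MetaXpress nuclear counts. Viability is the treated-to-vehicle ratio of nuclei, taken as the median across plates. Only plates with control CV below 25% and at least one doubling passed.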

| Cell Line | relative viability (0.01 µM) | relative viability (0.03162 µM) | relative viability (0.1 µM) | relative viability (0.3162 µM) | relative viability (1 µM) |
| --- | --- | --- | --- | --- | --- |
| 201T | 0.999 | 1.02 | 0.932 | 0.893 | 0.669 |
| A-427 | 1.12 | 0.981 | 0.987 | 0.826 | 0.609 |
| ABC-1 | 0.959 |  | 0.88 | 0.756 | 0.663 |
| BEN | 1.2 | 1.03 | 0.926 | 0.853 | 0.752 |
| CAL-12T | 0.937 | 0.82 | 0.617 | 0.549 | 0.391 |
| COR-L23 | 1.04 | 0.803 | 0.681 | 0.622 | 0.467 |
| COR-L 105 | 0.935 | 0.807 | 0.734 | 0.696 | 0.571 |
| Calu-6 | 0.931 | 0.767 | 0.688 | 0.572 | 0.579 |
| ChaGo-K-1 | 0.993 | 1.02 | 1.08 | 0.928 | 0.547 |
| EKVX | 1.07 | 0.954 | 0.901 | 0.807 | 0.531 |
| EMC-BAC-2 | 0.997 | 0.936 | 0.82 | 0.809 | 0.529 |
| EPLC-272H | 0.995 | 0.761 | 0.818 | 0.618 | 0.238 |
| H3255 | 1.05 | 0.991 | 0.796 | 0.642 | 0.617 |
| HARA | 1.14 | 1.03 | 1.04 | 0.826 | 0.348 |
| HCC-15 | 0.846 | 0.835 | 0.699 | 0.551 | 0.271 |
| HCC-44 | 0.967 | 0.871 | 0.802 | 0.729 | 0.472 |
| HCC-78 | 1 | 0.948 | 0.808 | 0.768 | 0.633 |
| HCC-366 | 1.06 | 0.939 | 0.781 | 0.541 | 0.0913 |
| HCC-827 | 1.06 | 0.975 | 0.787 | 0.65 | 0.584 |
| HOP-62 | 0.833 | 0.57 | 0.482 | 0.333 | 0.454 |
| IA-LM | 0.426 | 0.529 | 0.376 | 0.185 | 0.184 |
| LC-2-ad | 0.925 | 0.783 | 0.636 | 0.614 | 0.403 |
| LCLC-97TM1 | 0.98 | 0.707 | 0.878 | 0.703 | 0.19 |
| LCLC-103H | 1.06 | 1.04 | 0.927 | 0.817 | 0.756 |
| LK-2 | 1.03 | 0.857 | 0.809 | 0.615 | 0.607 |
| LOU-NH91 | 0.912 | 0.841 | 0.908 | 0.771 | 0.558 |

| Cell Line | relative viability (0.01 µM) | relative viability (0.03162 µM) | relative viability (0.1 µM) | relative viability (0.3162 µM) | relative viability (1 µM) |
| --- | --- | --- | --- | --- | --- |
| LU99A | 1 | 0.836 | 0.643 | 0.556 | 0.394 |
| LXF-289 | 0.985 | 0.943 | 1 | 0.894 | 0.771 |
| NCI-H23 | 1.09 | 0.767 | 0.765 | 0.539 | 0.337 |
| NCI-H322M | 0.965 | 1.06 | 0.977 | 0.805 | 0.786 |
| NCI-H358 | 1.04 | 0.918 | 0.834 | 0.729 | 0.416 |
| NCI-H441 | 1.33 | 0.751 | 0.718 | 0.568 | 0.393 |
| NCI-H460 | 0.989 | 0.963 | 0.727 | 0.538 | 0.149 |
| NCI-H520 | 1.02 | 0.9 | 0.947 | 0.658 | 0.504 |
| NCI-H522 | 0.917 | 1.06 | 1.1 | 0.898 | 0.748 |
| NCI-H596 | 0.982 | 0.964 | 0.918 | 0.724 | 0.587 |
| NCI-H647 | 0.883 | 0.807 | 0.727 | 0.404 | 0.196 |
| NCI-H650 | 0.855 | 0.922 | 0.733 | 0.695 | 0.368 |
| NCI-H661 | 1.03 | 1.02 | 0.934 | 0.905 | 0.849 |
| NCI-H727 | 1.16 | 1.11 | 0.876 | 0.685 | 0.645 |
| NCI-H838 | 0.9 | 0.892 | 0.741 | 0.722 | 0.621 |
| NCI-H1355 | 1.04 | 0.852 | 0.68 | 0.675 | 0.607 |
| NCI-H1395 | 0.808 | 0.823 | 0.659 | 0.606 | 0.492 |
| NCI-H1437 | 1.01 | 1.01 | 1.02 | 0.917 | 0.634 |
| NCI-H1563 | 0.992 | 1.02 | 0.876 | 0.935 | 0.794 |
| NCI-H1648 | 1.03 | 0.761 | 0.896 | 0.651 | 0.58 |
| NCI-H1650 | 0.68 | 0.486 | 0.553 | 0.453 | 0.374 |
| NCI-H1651 | 1.02 | 0.992 | 1.05 | 0.992 | 0.877 |
| NCI-H1666 | 0.99 | 0.858 | 0.858 | 0.8 | 0.795 |
| NCI-H1703 | 0.853 | 0.75 | 0.287 | 0.33 | 0.344 |
| NCI-H1734 | 0.92 | 0.865 | 0.789 | 0.559 | 0.448 |
| NCI-H1755 | 1.02 | 1 | 0.976 | 0.955 | 0.826 |

| Cell Line | relative viability (0.01 µM) | relative viability (0.03162 µM) | relative viability (0.1 µM) | relative viability (0.3162 µM) | relative viability (1 µM) |
| --- | --- | --- | --- | --- | --- |
| NCI-H1792 | 0.952 | 0.715 | 0.706 | 0.25 | 0.238 |
| NCI-H1793 | 0.981 | 0.802 | 0.869 | 0.448 | 0.462 |
| NCI-H1915 | 0.772 | 0.763 | 0.606 | 0.494 | 0.42 |
| NCI-H1944 | 0.886 | 0.65 | 0.514 | 0.437 | 0.429 |
| NCI-H1975 | 0.914 | 1.11 | 0.979 | 0.705 | 0.59 |
| NCI-H1993 | 0.966 | 0.754 | 0.736 | 0.593 | 0.69 |
| NCI-H2009 | 1.03 | 0.876 | 0.766 | 0.697 | 0.575 |
| NCI-H2023 | 0.868 | 0.665 | 0.502 | 0.458 | 0.288 |
| NCI-H2085 | 1.04 | 0.82 | 0.708 | 0.661 | 0.723 |
| NCI-H2087 | 0.849 | 0.405 | 0.332 | 0.329 | 0.401 |
| NCI-H2126 | 1.03 | 0.992 | 0.954 | 0.933 | 0.566 |
| NCI-H2170 | 1.04 | 1.03 | 0.992 | 0.789 | 0.8 |
| NCI-H2228 | 1.06 | 0.844 | 0.687 | 0.606 | 0.553 |
| NCI-H2342 | 1.06 | 0.984 | 0.749 | 0.807 | 0.571 |
| NCI-H2347 | 0.831 | 0.89 | 0.735 | 0.676 | 0.691 |
| NCI-H2405 | 1.03 | 0.984 | 0.928 | 0.954 | 0.735 |
| NCI-H3122 | 1.02 | 0.977 | 0.949 | 0.704 | 0.44 |
| PC-3 [JPC-3] | 0.981 | 0.977 | 0.979 | 0.754 | 0.576 |
| PC-14 | 0.9 | 0.695 | 0.481 | 0.32 | 0.263 |
| RERF-LC-KJ | 1.1 | 0.948 | 0.899 | 0.697 | 0.665 |
| SK-LU-1 | 1.03 | 0.778 | 0.711 | 0.536 | 0.634 |
| SK-MES-1 | 1.07 | 0.933 | 0.909 | 0.727 | 0.704 |
| SW 900 | 0.697 | 0.282 | 0.486 | 0.338 | 0.272 |
| SW 1573 | 0.965 | 0.603 | 0.477 | 0.42 | 0.357 |
| UMC-11 | 0.884 | 0.641 | 0.566 | 0.517 | 0.432 |
